Source: the supplement of paper PMC13207355
Counter-ions that a name gives are not always drawn.

What was measured:
Conditions in all cases: exposure time: 72 h
[1] = system: FT3469 (normal neural stem cell line); test: phenotypic distance (Euclidean, principal components) from DMSO controls (arbitrary units); higher = stronger morphological change
[2] = system: E28 (patient-derived glioblastoma stem cells of classical subtype); test: as above
[3] = system: E57 (patient-derived glioblastoma stem cells of mesenchymal subtype); test: as above
[4] = system: E31 (patient-derived glioblastoma stem cells of proneural subtype); test: as above
[5] = system: E34 (patient-derived glioblastoma stem cells of proneural subtype); test: as above
[6] = system: E21 (patient-derived glioblastoma stem cells of mesenchymal subtype); test: as above
[7] = system: E13 (patient-derived glioblastoma stem cells of classical subtype); test: as above
[8] = system: FT3469; test: surviving fraction (nuclei count normalised to DMSO); higher = more cells surviving (less toxic)
[9] = system: E28; test: as above
[10] = system: E57; test: as above
[11] = system: E31; test: as above
[12] = system: E34; test: as above
[13] = system: E21; test: as above
[14] = system: E13; test: as above
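Wherever phenotypic distance (Euclidean, principal components) from DMSO controls is given: cell Painting imaging in 384-well plates, CellProfiler features reduced to at least 20 principal components, Euclidean distance versus same-plate DMSO vehicle wells (0.1% v/v), median over six images per well.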
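Wherever surviving fraction (nuclei count normalised to DMSO) is given: nuclei counted by high-content imaging of Hoechst-stained cells in laminin-coated 384-well plates, relative to 0.1% DMSO vehicle wells, with staurosporine as cell-death control.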

CNCCc1ccccn1 [Betahistine mesylate]
Conditions | phenotypic distance | surviving fraction
[1], 4.1 nM | 0.827 | –
[1], 12.3 nM | 0.751 | –
[1], 37 nM | 0.948 | –
[1], 111.1 nM | 0.634 | –
[1], 333.3 nM | 1.15 | –
[1], 1000 nM | 0.929 | –
[1], 3000 nM | 0.86 | –
[2], 4.1 nM | 0.708 | –
[2], 12.3 nM | 1.01 | –
[2], 37 nM | 0.524 | –
[2], 111.1 nM | 0.891 | –
[2], 333.3 nM | 0.512 | –
[2], 1000 nM | 0.607 | –
[2], 3000 nM | 0.451 | –
[3], 4.1 nM | 4.51 | –
[3], 12.3 nM | 1.49 | –
[3], 37 nM | 1.15 | –
[3], 111.1 nM | 1.23 | –
[3], 333.3 nM | 0.721 | –
[3], 1000 nM | 0.773 | –
[3], 3000 nM | 0.773 | –
[4], 4.1 nM | 0.624 | –
[4], 12.3 nM | 0.892 | –
[4], 37 nM | 0.655 | –
[4], 111.1 nM | 0.749 | –
[4], 333.3 nM | 0.468 | –
[4], 1000 nM | 0.554 | –
[4], 3000 nM | 1.08 | –
[5], 4.1 nM | 0.696 | –
[5], 12.3 nM | 0.75 | –
[5], 37 nM | 0.843 | –
[5], 111.1 nM | 1.03 | –
[5], 333.3 nM | 0.558 | –
[5], 1000 nM | 0.851 | –
[5], 3000 nM | 1.25 | –
[6], 4.1 nM | 1.28 | –
[6], 12.3 nM | 1.7 | –
[6], 37 nM | 0.97 | –
[6], 111.1 nM | 1.14 | –
[6], 333.3 nM | 1.32 | –
[6], 1000 nM | 1.57 | –
[6], 3000 nM | 1.61 | –
[7], 4.1 nM | 0.901 | –
[7], 12.3 nM | 0.868 | –
[7], 37 nM | 1.14 | –
[7], 111.1 nM | 0.834 | –
[7], 333.3 nM | 0.663 | –
[7], 1000 nM | 0.868 | –
[7], 3000 nM | 0.634 | –
[8], 4.1 nM | – | 0.941
[8], 12.3 nM | – | 1.08
[8], 37 nM | – | 1.16
[8], 111.1 nM | – | 0.935
[8], 333.3 nM | – | 1.23
[8], 1000 nM | – | 1.18
[8], 3000 nM | – | 1.19
[9], 4.1 nM | – | 0.99
[9], 12.3 nM | – | 1.1
[9], 37 nM | – | 1.08
[9], 111.1 nM | – | 0.858
[9], 333.3 nM | – | 1.04
[9], 1000 nM | – | 1.1
[9], 3000 nM | – | 1.2
[10], 4.1 nM | – | 0.99
[10], 12.3 nM | – | 0.95
[10], 37 nM | – | 0.987
[10], 111.1 nM | – | 1.04
[10], 333.3 nM | – | 1.01
[10], 1000 nM | – | 0.983
[10], 3000 nM | – | 0.999
[11], 4.1 nM | – | 0.967
[11], 12.3 nM | – | 1.11
[11], 37 nM | – | 0.864
[11], 111.1 nM | – | 1.01
[11], 333.3 nM | – | 0.976
[11], 1000 nM | – | 1.09
[11], 3000 nM | – | 1.1
[12], 4.1 nM | – | 0.797
[12], 12.3 nM | – | 0.969
[12], 37 nM | – | 0.928
[12], 111.1 nM | – | 1.16
[12], 333.3 nM | – | 1.11
[12], 1000 nM | – | 1.1
[12], 3000 nM | – | 0.927
[13], 4.1 nM | – | 1.01
[13], 12.3 nM | – | 1.06
[13], 37 nM | – | 0.973
[13], 111.1 nM | – | 0.957
[13], 333.3 nM | – | 1.08
[13], 1000 nM | – | 1.01
[13], 3000 nM | – | 1.17
[14], 4.1 nM | – | 0.978
[14], 12.3 nM | – | 0.933
[14], 37 nM | – | 1.01
[14], 111.1 nM | – | 1.13
[14], 333.3 nM | – | 0.991
[14], 1000 nM | – | 1.05
[14], 3000 nM | – | 1.08
